US7807701B2, “Dibenzylamine compounds and pharmaceutical use thereof” (Japan Tobacco Inc., priority 2002, dated 2010)
Structures can show the parent of a compound that is named as a salt.

The molecules below were run against T1, CETP (Homo sapiens, UniProt P11597) (assay: Inhibitory effect in vitro on CETP activity in total plasma). Details: plasma of healthy subject with [3H]CE-HDL3, 37° C., 4 hr; average values.
T1 construct: The donor lipoprotein obtained above was added to plasma of healthy subject; from tissue; host or cells: whole plasma of healthy subject
T1 sequence (P11597 18-493): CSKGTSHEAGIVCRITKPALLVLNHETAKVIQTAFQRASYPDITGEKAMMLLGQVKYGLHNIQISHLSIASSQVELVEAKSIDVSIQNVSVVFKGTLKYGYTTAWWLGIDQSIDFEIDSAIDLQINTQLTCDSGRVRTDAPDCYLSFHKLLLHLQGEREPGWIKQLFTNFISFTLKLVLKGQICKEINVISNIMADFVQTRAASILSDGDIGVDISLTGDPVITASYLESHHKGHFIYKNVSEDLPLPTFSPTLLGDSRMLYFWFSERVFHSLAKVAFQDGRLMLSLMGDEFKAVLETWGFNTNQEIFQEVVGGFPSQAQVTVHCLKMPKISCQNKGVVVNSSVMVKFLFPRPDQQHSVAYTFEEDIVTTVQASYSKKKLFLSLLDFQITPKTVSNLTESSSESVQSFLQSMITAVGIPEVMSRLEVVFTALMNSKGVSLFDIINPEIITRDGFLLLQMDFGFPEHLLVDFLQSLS
Assay type: biochemical
Procedure: Potassium bromide (KBr) was added to plasma (40 mL) of healthy subject and the mixture was adjusted to have a specific density d=1.125 g/mL. The mixture was subjected to density gradient centrifugation (227,000×g, 4° C., 17 hr) and a fraction showing a specific density of d>1.125 g/mL (HDL3 fraction) was harvested. The obtained fraction was dialyzed against PBS solution [10 mmol/L Na2HPO4; 10 mmol/L NaH2PO4; 0.15 mol/L NaCl; […] (pH 7.4)]. Then, tritium-labeled cholesterol (37 MBq) was dissolved in 95% ethanol, gradually added to the above-mentioned HDL3 fraction with stirring and incubated at 37° C. for 18 hr. [By this operation, tritium-labeled cholesterol was esterified by the action of lecithin acyl transferase (LCAT) present on the HDL3 surface and taken up into HDL3 as tritium-labeled cholesteryl ester ([^3H]CE)]. After incubation, KBr was added, the mixture was adjusted to have a specific density d=1.21 g/mL, subjected to density gradient centrifugation (227,000×g, 4° C., 17 hr) and a fraction of specific density […] was harvested. The obtained fraction was dialyzed against the aforementioned PBS solution to give HDL3 incorporating [^3H]CE ([^3H]CE-HDL3, specific density: 1.125<d<1.21, specific activity: 10,000 dpm/μL), which was used as a donor lipoprotein.
The donor lipoprotein obtained above was added to plasma of healthy subject to prepare a [^3H]CE-HDL3-containing plasma (1,000 dpm/μL). The compound was dissolved in dimethyl formamide. A solution of the compound or a solvent alone (2 μL) and the [^3H]CE-HDL3-containing plasma (100 μL) were added into a microtube, and this was incubated at 37° C. or 4° C. for 4 hr. After ice-cooling, TBS solution [100 μL, 20 mmol/L Tris; 0.15 mol/L NaCl (pH 7.4)] containing 1 mol/L magnesium chloride and 2% dextran sulfate was added to each microtube and the mixture was thoroughly stirred. After keeping at 4° C. for 30 min, the mixture was centrifuged (10,000×g, 4° C., 10 min), and the radioactivity in the obtained supernatant (HDL fraction) was measured with a scintillation counter. […] The concentration of the compound necessary for inhibiting the CETP activity by 50% was calculated as an IC50 value.
In the case of `CCN(C[C@H]1CC[C@H](C(=O)OC)CC1)c1cc2c(cc1CN(Cc1cc(C(F)(F)F)cc(C(F)(F)F)c1)c1ccn(C)n1)CCCC2` [Example 42, methyl trans-4-{[N-(3-{[N′-[3,5-bis(trifluoromethyl)benzyl]-N′-(1-methyl-1H-pyrazol-3-yl)amino]methyl}-5,6,7,8-tetrahydronaphthalen-2-yl)-N-ethylamino]methyl}cyclohexanecarboxylate hydrochloride], the IC50 is reported as 700 nM. `CCN(C[C@H]1CC[C@H](CC(=O)O)CC1)c1cc2c(cc1CN(Cc1cc(C(F)(F)F)cc(C(F)(F)F)c1)c1nnn(C)n1)OC(F)(F)C(F)(F)O2` [Example 137, trans-(4-{[N-(7-{[N′-[3,5-bis(trifluoromethyl)benzyl]-N′-(2-methyl-2H-tetrazol-5-yl)amino]methyl}-2,2,3,3-tetrafluoro-2,3-dihydrobenzo[1,4]dioxin-6-yl)-N-ethylamino]methyl}cyclohexyl)acetic acid hydrochloride] showed an IC50 of 140 nM. Molecule `CCN(CCCCC(=O)OC)c1cc2c(cc1CN(Cc1cc(C(F)(F)F)cc(C(F)(F)F)c1)c1ncn(C)n1)CCCC2` [Example 74, methyl 5-[N-(3-{[N′-[3,5-bis(trifluoromethyl)benzyl]-N′-(1-methyl-1H-[1,2,4]triazol-3-yl)amino]methyl}-5,6,7,8-tetrahydronaphthalen-2-yl)-N-ethylamino]pentanoate hydrochloride] has an IC50 of 400 nM. `CCN(C[C@H]1CC[C@H](C(=O)O)CC1)c1cc2c(cc1CN(Cc1cc(C#N)cc(C(F)(F)F)c1)c1ncn(C)n1)CCCC2` [Example 70, trans-4-{[N-(3-{[N′-(3-cyano-5-trifluoromethylbenzyl)-N′-(1-methyl-1H-[1,2,4]triazol-3-yl)amino]methyl}-5,6,7,8-tetrahydronaphthalen-2-yl)-N-ethylamino]methyl}cyclohexanecarboxylic acid] showed an IC50 of 540 nM. `CCN(C[C@H]1CC[C@H](CO)CC1)c1ccc(OC(F)(F)F)cc1CN(Cc1cc(C(F)(F)F)cc(C(F)(F)F)c1)c1nnn(C)n1` [Example 119, trans-(4-{[N-(2-{[N′-[3,5-bis(trifluoromethyl)benzyl]-N′-(2-methyl-2H-tetrazol-5-yl)amino]methyl}-4-trifluoromethoxyphenyl)-N-ethylamino]methyl}cyclohexyl)methanol hydrochloride] was tested, and the IC50 was 130 nM. In the case of `CCN(CCCCC(=O)O)c1cc2c(cc1CN(Cc1cc(C#N)cc(C(F)(F)F)c1)c1nnn(C)n1)CCCC2` [Example 81, 5-[N-(3-{[N′-(3-cyano-5-trifluoromethylbenzyl)-N′-(2-methyl-2H-tetrazol-5-yl)amino]methyl}-5,6,7,8-tetrahydronaphthalen-2-yl)-N-ethylamino]pentanoic acid hydrochloride], the IC50 is reported as 330 nM. `CCN(C[C@H]1CC[C@H](CC(=O)O)CC1)c1cc2c(cc1CN(Cc1cc(C(F)(F)F)cc(C(F)(F)F)c1)c1nnn(C)n1)CCC2` [Example 111, trans-(4-{[N-(6-{[N′-[3,5-bis(trifluoromethyl)benzyl]-N′-(2-methyl-2H-tetrazol-5-yl)amino]methyl}indan-5-yl)-N-ethylamino]methyl}cyclohexyl)acetic acid hydrochloride] was tested, and the IC50 was 190 nM. `CCN(CCCCC(=O)OC)c1cc2c(cc1CN(Cc1cc(C(F)(F)F)cc(C(F)(F)F)c1)c1ccn(C)n1)CCCC2` [Example 63, methyl 5-[N-(3-{[N′-[3,5-bis(trifluoromethyl)benzyl]-N′-(1-methyl-1H-pyrazol-3-yl)amino]methyl}-5,6,7,8-tetrahydronaphthalen-2-yl)-N-ethylamino]pentanoate hydrochloride] was tested, and the IC50 was 640 nM. `CCN(CC1CCCC1)c1cc2c(cc1CN(Cc1cc(C(F)(F)F)cc(C(F)(F)F)c1)c1nnn(C)n1)CCC2` [Example 4, N-[3,5-bis(trifluoromethyl)benzyl]-N-[6-(N′-cyclopentylmethyl-N′-ethylamino)indan-5-ylmethyl]-(2-methyl-2H-tetrazol-5-yl)amine hydrochloride] gave an IC50 of 180 nM.
